Measurements taken from ChEMBL document CHEMBL1147669, “Synthesis of biphenyltrienes as probes for beta-amyloid plaques” (J Med Chem, 2006).
One block for each compound: values may come before it.

Assays:
[1] = target: T1, Amyloid-beta precursor protein (Homo sapiens, UniProt P05067); experiment: Displacement of [125I]2-(4'-dimethylaminophenyl)-6-iodoimidazo[1,2-a]pyridine from beta amyloid peptide in brain tissue at 50 uL; type: tissue-based
[2] = target: T1, Amyloid-beta precursor protein; experiment: Displacement of [125I](E,E)-1-iodo-2,5-bis-(3-hydroxycarbonyl-4-methoxy)styrylbenzene from beta amyloid peptide in brain tissue at 50 uL; type: tissue-based

T1 sequence (P05067 whole entry): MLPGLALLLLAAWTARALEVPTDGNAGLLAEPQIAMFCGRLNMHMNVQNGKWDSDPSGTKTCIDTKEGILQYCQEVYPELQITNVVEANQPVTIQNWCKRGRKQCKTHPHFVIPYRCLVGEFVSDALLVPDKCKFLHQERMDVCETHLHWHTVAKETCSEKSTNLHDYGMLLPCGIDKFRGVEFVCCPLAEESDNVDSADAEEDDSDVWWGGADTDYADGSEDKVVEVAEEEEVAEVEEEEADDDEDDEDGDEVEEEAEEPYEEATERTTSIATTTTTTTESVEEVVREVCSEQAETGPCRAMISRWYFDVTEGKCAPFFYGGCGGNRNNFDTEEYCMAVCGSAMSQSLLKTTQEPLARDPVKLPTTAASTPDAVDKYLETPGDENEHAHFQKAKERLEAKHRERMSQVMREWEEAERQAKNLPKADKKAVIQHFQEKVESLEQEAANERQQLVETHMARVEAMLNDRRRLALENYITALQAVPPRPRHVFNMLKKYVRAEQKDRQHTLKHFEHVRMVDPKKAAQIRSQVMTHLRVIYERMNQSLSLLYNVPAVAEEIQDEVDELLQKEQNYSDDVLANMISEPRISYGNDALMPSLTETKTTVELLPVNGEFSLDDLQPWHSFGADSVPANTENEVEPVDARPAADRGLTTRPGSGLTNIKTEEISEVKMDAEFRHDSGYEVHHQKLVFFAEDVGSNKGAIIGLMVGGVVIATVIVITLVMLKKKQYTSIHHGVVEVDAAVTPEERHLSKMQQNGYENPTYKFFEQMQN

Ki [1]: 9 nM
Ki [2]: 375 nM
Structure (SMILES): Nc1ccc(/C=C/C=C/C=C/c2ccc(N)cc2)cc1

Ki [1]: 7.5 nM
Ki [2]: 122 nM
Structure (SMILES): CNc1ccc(/C=C/C=C/C=C/c2ccc(NC)cc2)cc1

Ki [1]: > 1000 nM
Ki [2]: 5.1 nM
Structure (SMILES): COc1ccc(/C=C/c2ccc(/C=C/c3ccc(OC)c(C(=O)O)c3)c(I)c2)cc1C(=O)O

Ki [1]: > 4000 nM
Ki [2]: > 8000 nM
Structure (SMILES): COc1ccc(/C=C/C=C/C=C/c2ccc(OC)cc2)cc1

Ki [1]: 9 nM
Ki [2]: 150 nM
Structure (SMILES): Oc1ccc(/C=C/C=C/C=C/c2ccc(O)cc2)cc1

Continued, compound first:

Structure (SMILES): Nc1ccc(/C=C/C=C/C=C/c2ccc(NCCF)cc2)cc1
Ki [1]: 12 nM
Ki [2]: 217 nM

Structure (SMILES): O=[N+]([O-])c1ccc(/C=C/C=C/C=C/c2ccc([N+](=O)[O-])cc2)cc1
Ki [1]: 500 nM
Ki [2]: > 4000 nM

Structure (SMILES): CC(=C(C#N)C#N)c1ccc2cc(N(C)CCF)ccc2c1
Ki [1]: 152 nM
Ki [2]: > 8000 nM

Structure (SMILES): CN(C)c1ccc(/C=C/C=C/C=C/c2ccc(N(C)C)cc2)cc1
Ki [1]: 837 nM
Ki [2]: > 7000 nM
